From PubChem BioAssay AID256 (DTP/NCI, 2004) come the findings set out here.

Toxic doses and inconclusive results are not listed.

The experiment relates to CD2F1 mice, L1210 leukemia ip, survival T/C. The experiment in a line: NCI In Vivo Anticancer Drug Screen. Data for tumor model L1210 Leukemia (intraperitoneal) in CD2F1 (CDF1) mice. The conditions noted are these: higher = longer survival. A digest of the protocol:
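Vehicle-treated tumor-bearing mice served as controls (C) for compound-treated mice (T). Reported figure is T divided by C.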

Where [1] appears, read: endpoint: mean survival time, dose: 100.0 mg/kg/injection, schedule: Q01DX009 (ip), vehicle: saline with Tween-80.
Setting [2] is: endpoint: mean survival time, dose: 100.0 mg/kg/injection, schedule: Q04DX003 (ip), vehicle: saline with Tween-80.
[3] abbreviates: endpoint: mean survival time, dose: 200.0 mg/kg/injection, schedule: Q01DX009 (ip), vehicle: saline with Tween-80.
[4] abbreviates: endpoint: mean survival time, dose: 200.0 mg/kg/injection, schedule: Q04DX003 (ip), vehicle: saline with Tween-80.
[5] abbreviates: endpoint: mean survival time, dose: 400.0 mg/kg/injection, schedule: Q01DX009 (ip), vehicle: saline with Tween-80.
Where [6] appears, read: endpoint: mean survival time, dose: 400.0 mg/kg/injection, schedule: Q04DX003 (ip), vehicle: saline with Tween-80.
The mark [7] stands for this setting: endpoint: mean survival time, dose: 100.0 mg/kg/injection, schedule: Q04DX002 (ip), vehicle: saline with Tween-80.
Setting [8] is: endpoint: mean survival time, dose: 200.0 mg/kg/injection, schedule: Q04DX002 (ip), vehicle: saline with Tween-80.
The mark [9] stands for this setting: endpoint: mean survival time, dose: 200.0 mg/kg/injection, schedule: Q01DX001 (ip), vehicle: saline.

For the compound `COC(=O)C1C2OC(C(Br)C2Br)C1C(=O)OC` (centres undefined), the T/C is 100 % of control under setting [1]; 97 % of control under setting [2]; 92 % of control under setting [3]; 93 % of control under setting [4]; 100 % of control under setting [5]; 92 % of control under setting [6].
Regarding `CC(=O)Nc1c(C#N)c(C#N)nn1C`, the T/C is 98 % of control (endpoint: mean survival time, dose: 50.0 mg/kg/injection, schedule: Q04DX002 (ip), vehicle: saline with Tween-80); 106 % of control under setting [7]; 102 % of control under setting [8].
Regarding `O=C1C=C(O)C2C(=O)C1C1/C(=[N+](/[O-])O)C=C([N+](=O)[O-])C2C1[N+](=O)[O-]` (centres undefined), the T/C is, setting by setting: under setting [7], 98 % of control; under setting [8], 110 % of control; (endpoint: mean survival time, dose: 400.0 mg/kg/injection, schedule: Q04DX002 (ip), vehicle: saline with Tween-80) 98 % of control.
For the compound `CC1=C(/C=C/C(C)=C/C=C/C(C)=C/C(=O)O)C(C)(C)CCC1`, the T/C is, setting by setting: (endpoint: mean survival time, dose: 8.0 mg/kg/injection, schedule: Q01DX009 (ip), vehicle: saline with Tween-80) 100 % of control; (endpoint: mean survival time, dose: 16.0 mg/kg/injection, schedule: Q01DX009 (ip), vehicle: saline with Tween-80) 95 % of control; (endpoint: mean survival time, dose: 32.0 mg/kg/injection, schedule: Q01DX009 (ip), vehicle: saline with Tween-80) 95 % of control; (endpoint: mean survival time, dose: 64.0 mg/kg/injection, schedule: Q01DX009 (ip), vehicle: saline with Tween-80) 97 % of control; under setting [2], 105 % of control; (endpoint: mean survival time, dose: 128.0 mg/kg/injection, schedule: Q01DX009 (ip), vehicle: saline with Tween-80) 87 % of control. In addition, the T/C is, setting by setting: under setting [4], 100 % of control; under setting [6], 97 % of control.
With `COC12C(COC(N)=O)C3=C(C(=O)C(C)=C(N4CC4C#N)C3=O)N1CC1NC12` (centres undefined), the T/C was 120 % of control (endpoint: median survival time, dose: 0.19 mg/kg/injection, schedule: Q01DX001 (ip), vehicle: water); 121 % of control (endpoint: median survival time, dose: 0.38 mg/kg/injection, schedule: Q01DX001 (ip), vehicle: water); 123 % of control (endpoint: median survival time, dose: 0.75 mg/kg/injection, schedule: Q01DX001 (ip), vehicle: water); 121 % of control (endpoint: median survival time, dose: 1.5 mg/kg/injection, schedule: Q01DX001 (ip), vehicle: water).
For the compound `[Cl][Pt+2][Cl].[NH-]C(CO)C([NH-])CO` (centres undefined), the T/C is 102 % of control (endpoint: median survival time, dose: 1.25 mg/kg/injection, schedule: Q04DX003 (ip), vehicle: water); 102 % of control (endpoint: median survival time, dose: 2.5 mg/kg/injection, schedule: Q04DX003 (ip), vehicle: water); 115 % of control (endpoint: median survival time, dose: 5.0 mg/kg/injection, schedule: Q04DX003 (ip), vehicle: water); 156 % of control (endpoint: median survival time, dose: 12.5 mg/kg/injection, schedule: Q04DX003 (ip), vehicle: distilled water + Tween-80); 93 % of control (endpoint: median survival time, dose: 20.0 mg/kg/injection, schedule: Q04DX003 (ip), vehicle: water).
Turning to `CCOc1cc(C(F)(F)F)nc2c3c(cc(OC)c12)CCCN3CC`, the T/C is 98 % of control under setting [1] and 90 % of control under setting [5].
Turning to `O=C(CNC(=O)OCc1ccccc1)NCC(=O)NC(CO)C(=O)O` (centres undefined), the T/C was 95 % of control under setting [2], 104 % of control under setting [4] and 96 % of control under setting [6].
As for `O=NN(CCCCl)C(=O)Nc1ccccc1`, the T/C (endpoint: mean survival time, dose: 100.0 mg/kg/injection, schedule: Q01DX001 (ip), vehicle: carboxymethylcellulose (CMC)) is 96 % of control and the T/C (endpoint: mean survival time, dose: 200.0 mg/kg/injection, schedule: Q01DX001 (ip), vehicle: carboxymethylcellulose (CMC)) is 119 % of control.
Regarding `CCOC(=O)/C(=C/C(C#N)=C/N(C)C)CC`, the T/C is 93 % of control (endpoint: mean survival time, dose: 100.0 mg/kg/injection, schedule: Q04DX003 (ip), vehicle: saline sonified) and 108 % of control (endpoint: mean survival time, dose: 200.0 mg/kg/injection, schedule: Q04DX003 (ip), vehicle: saline sonified).
Regarding `O=C1c2ccccc2C(=O)N1CNc1cccc(NCN2C(=O)c3ccccc3C2=O)n1`, the T/C by setting is: under setting [2], 104 % of control; under setting [4], 106 % of control; under setting [6], 90 % of control.
`C[C@@H]1C[C@H]2CC[C@H](O2)[C@H](C)C(=O)O[C@@H](C)C[C@@H]2CC[C@@H](O2)[C@@H](C)C(=O)O[C@H](C)C[C@H]2CC[C@H](O2)[C@H](C)C(=O)O[C@@H](C)C[C@@H]2CC[C@@H](O2)[C@@H](C)C(=O)O1`: the T/C reads like this: (endpoint: mean survival time, dose: 8.0 mg/kg/injection, schedule: Q01DX008 (iv), vehicle: saline) 98 % of control; (endpoint: mean survival time, dose: 16.0 mg/kg/injection, schedule: Q01DX008 (iv), vehicle: saline) 98 % of control; (endpoint: mean survival time, dose: 32.0 mg/kg/injection, schedule: Q01DX008 (iv), vehicle: saline) 95 % of control.
With `C#CCO`, the T/C is 94 % of control (endpoint: mean survival time, dose: 12.0 mg/kg/injection, schedule: Q04DX003 (ip), vehicle: saline); 97 % of control (endpoint: mean survival time, dose: 25.0 mg/kg/injection, schedule: Q04DX003 (ip), vehicle: saline); 103 % of control (endpoint: mean survival time, dose: 50.0 mg/kg/injection, schedule: Q04DX003 (ip), vehicle: saline).
With `CCN1/C(=C/c2ccc3ccccc3[n+]2CC)C=Cc2ccccc21`, the T/C is, setting by setting: (endpoint: mean survival time, dose: 0.25 mg/kg/injection, schedule: Q01DX001 (ip), vehicle: other) 95 % of control; (endpoint: mean survival time, dose: 0.5 mg/kg/injection, schedule: Q01DX001 (ip), vehicle: other) 97 % of control; (endpoint: mean survival time, dose: 1.0 mg/kg/injection, schedule: Q01DX001 (ip), vehicle: other) 95 % of control.
With `O=c1c2ccccc2on1-c1ncnc2nc[nH]c12`, the T/C was 105 % of control (endpoint: mean survival time, dose: 12.5 mg/kg/injection, schedule: Q01DX005 (ip), vehicle: other); 113 % of control (endpoint: mean survival time, dose: 25.0 mg/kg/injection, schedule: Q01DX005 (ip), vehicle: other); 111 % of control (endpoint: mean survival time, dose: 50.0 mg/kg/injection, schedule: Q01DX005 (ip), vehicle: other); 95 % of control (endpoint: mean survival time, dose: 100.0 mg/kg/injection, schedule: Q01DX005 (ip), vehicle: other).
Turning to `Cc1ccc(CNc2ccc(I)cc2)cc1`, the T/C runs as follows: under setting [2], 93 % of control; under setting [4], 88 % of control; under setting [6], 86 % of control.
`O=Cc1c2ccccc2cc2ccccc12`: the T/C by setting is: (endpoint: mean survival time, dose: 89.0 mg/kg/injection, schedule: Q01DX001 (ip), vehicle: saline) 170 % of control; (endpoint: mean survival time, dose: 133.0 mg/kg/injection, schedule: Q01DX001 (ip), vehicle: saline) 167 % of control; under setting [9], 162 % of control.
`CN(Cc1ccc([N+](=O)[O-])cc1)N=Nc1ccc(C(=O)O)cc1`: the T/C is, setting by setting: (endpoint: mean survival time, dose: 25.0 mg/kg/injection, schedule: Q01DX009 (ip), vehicle: other) 94 % of control; (endpoint: mean survival time, dose: 50.0 mg/kg/injection, schedule: Q01DX009 (ip), vehicle: other) 97 % of control; (endpoint: mean survival time, dose: 100.0 mg/kg/injection, schedule: Q01DX009 (ip), vehicle: other) 86 % of control; (endpoint: mean survival time, dose: 200.0 mg/kg/injection, schedule: Q01DX009 (ip), vehicle: other) 94 % of control.
As for `CCCC(NC(=O)C(C)Br)C(=O)O` (centres undefined), the T/C was 95 % of control under setting [2], 96 % of control under setting [4] and 100 % of control under setting [6].
As to `N#Cc1c(F)c(F)c(C#N)c(F)c1F`, the T/C (endpoint: mean survival time, dose: 5.0 mg/kg/injection, schedule: Q04DX003 (ip), vehicle: Klucel (hydroxypropylcellulose) (HPC)) was 104 % of control; the T/C (endpoint: mean survival time, dose: 10.0 mg/kg/injection, schedule: Q04DX003 (ip), vehicle: Klucel (hydroxypropylcellulose) (HPC)) was 106 % of control; the T/C (endpoint: mean survival time, dose: 20.0 mg/kg/injection, schedule: Q04DX003 (ip), vehicle: Klucel (hydroxypropylcellulose) (HPC)) was 102 % of control; the T/C (endpoint: mean survival time, dose: 40.0 mg/kg/injection, schedule: Q04DX003 (ip), vehicle: Klucel (hydroxypropylcellulose) (HPC)) was 104 % of control.
As to `COc1ccccc1NC(C)=O`, the T/C is 96 % of control under setting [1]; 101 % of control under setting [2]; 98 % of control under setting [3]; 96 % of control under setting [4]; 96 % of control under setting [5]; 101 % of control under setting [6].
As to `CC1(O)C=CC(=O)C=C1`, the T/C (endpoint: median survival time, dose: 6.25 mg/kg/injection, schedule: Q01DX009 (ip), vehicle: water) is 91 % of control; the T/C (endpoint: median survival time, dose: 12.5 mg/kg/injection, schedule: Q01DX009 (ip), vehicle: water) was 103 % of control; the T/C (endpoint: median survival time, dose: 25.0 mg/kg/injection, schedule: Q01DX009 (ip), vehicle: water) is 122 % of control; the T/C (endpoint: median survival time, dose: 50.0 mg/kg/injection, schedule: Q01DX009 (ip), vehicle: water) was 91 % of control.
For the compound `COC(=O)c1cc(C)c(C)cc1NC1OC(CO)C(O)C1O` (centres undefined), the T/C reads like this: (endpoint: mean survival time, dose: 100.0 mg/kg/injection, schedule: Q01DX001 (ip), vehicle: saline) 91 % of control; under setting [9], 89 % of control; (endpoint: mean survival time, dose: 400.0 mg/kg/injection, schedule: Q01DX001 (ip), vehicle: saline) 86 % of control.
